Test results as given in US12280212B2, “Method and apparatus for simultaneously administering oxygen, and metered dose inhaler medication by inhalation” (priority 2019, dated 2025).

Assay: MDI inserted through a port into an oxygen mask without extender tube at 2-15 L/min oxygen flow, measured blood levels
Format: in vivo, patient
Details: 2-15 L/min oxygen flow (wash-out)
Text: The relatively high flow oxygen jet disperses the drug aerosol initially expressed into the mask from the MDI that was inserted into the mask, and as a result, much of the drug is dispersed around the interior of the mask and is washed out of the mask and back out through the MDI housing to ambient by the flow of oxygen, rather than being inhaled by the patient.
In this invention, an extender tube 300 (FIG. 12) is provided that can be inserted into or over the mouthpiece section 230 of an MDI body (FIGS. 8A, 8B, and 9). […] This use of the tube to channel the inhalable medication from an MDI to the mouth of the patient addresses the problem noted above that simply inserting an MDI mouthpiece into a mask with a flow of oxygen causes “wash-out” of the drug, i.e., the drug aerosol or particles (i.e., the discharge from an MDI) are dispersed within the mask and out to ambient, and as a result measured drug levels inhaled by the patient are very low. In the instant invention, measured drug levels of the MDI drug in the lung are high.

SMILES: CC(C)(C)NCC(O)c1ccc(O)c(CO)c1 (stereo not shown) [albuterol HFA, albuterol]
- measured blood levels of the albuterol drug: negligible
